Experiments:
Test in all cases: Test C postemergence greenhouse test, plant response rating 0-100
Format in all cases: in vivo
[1] = test system: bermudagrass (Cynodon dactylon); conditions: for Plant response rating, Bermudagrass: scale 0 to 100
In short: (§1)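 First, plants were raised in a sphagnum peat, vermiculite and nutrient medium to 1–4 leaves. Next, formulated test compounds were applied over the foliage. Finally, after 13–15 greenhouse days, injury was compared with controls and scored 0–100.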

[2] = test system: canarygrass (Phalaris minor); conditions: for Plant response rating, Canarygrass: scale 0 to 100
In short: as §1

[3] = test system: cocklebur (common cocklebur, Xanthium strumarium); conditions: for Plant response rating, Cocklebur: scale 0 to 100
In short: as §1

[4] = test system: deadnettle (henbit deadnettle, Lamium amplexicaule); conditions: for Plant response rating, Deadnettle: scale 0 to 100
In short: as §1

[5] = test system: goosegrass (Eleusine indica); conditions: for Plant response rating, Goosegrass: scale 0 to 100
In short: as §1

[6] = test system: green foxtail (Setaria viridis); conditions: for Plant response rating, Foxtail, Green: scale 0 to 100
In short: as §1

[7] = test system: surinam grass (Brachiaria decumbens); conditions: for Plant response rating, Surinam Grass: scale 0 to 100
In short: as §1

[8] = test system: windgrass (Apera spica-venti); conditions: for Plant response rating, Windgrass: scale 0 to 100
In short: as §1

[9] = test system: winter barley (Hordeum vulgare); conditions: for Plant response rating, Barley: scale 0 to 100
In short: as §1

[10] = test system: woolly cupgrass (Eriochloa villosa); conditions: for Plant response rating, Cupgrass, Woolly: scale 0 to 100
In short: as §1

Row | SMILES | Plant response rating (0 to 100), Bermudagrass ([1]; 62 g ai/ha) | Plant response rating, Bermudagrass ([1]; 250 g ai/ha) | Plant response rating (0 to 100), Canarygrass ([2]; 62 g ai/ha) | Plant response rating (0 to 100), Canarygrass ([2]; 125 g ai/ha) | Plant response rating, Canarygrass ([2]; 250 g ai/ha) | Plant response rating (0 to 100), Cocklebur ([3]; 62 g ai/ha) | Plant response rating (0 to 100), Cocklebur ([3]; 125 g ai/ha) | Plant response rating (0 to 100), Deadnettle ([4]; 62 g ai/ha) | Plant response rating (0 to 100), Deadnettle ([4]; 125 g ai/ha) | Plant response rating, Deadnettle ([4]; 250 g ai/ha) | Plant response rating (0 to 100), Goosegrass ([5]; 62 g ai/ha) | Plant response rating (0 to 100), Goosegrass ([5]; 125 g ai/ha) | Plant response rating, Goosegrass ([5]; 250 g ai/ha) | Plant response rating (0 to 100), Foxtail, Green ([6]; 62 g ai/ha) | Plant response rating (0 to 100), Foxtail, Green ([6]; 125 g ai/ha) | Plant response rating, Foxtail, Green ([6]; 250 g ai/ha) | Plant response rating (0 to 100), Surinam Grass ([7]; 62 g ai/ha) | Plant response rating (0 to 100), Surinam Grass ([7]; 125 g ai/ha) | Plant response rating, Surinam Grass ([7]; 250 g ai/ha) | Plant response rating (0 to 100), Windgrass ([8]; 62 g ai/ha) | further results
1 | C=CCn1cc(C(=O)c2ccccc2)c(-c2cc(Cl)cc(Cl)c2)n1 [Compound 60] | 5 | 5 | 0 | 0 | 0 | 15 | 20 | 0 | 0 | 0 | 0 | 0 | 0 | 0 | 0 | 0 | 0 | 0 | 5 | 0 | Plant response rating (0 to 100), Bermudagrass ([1]; 31 g ai/ha): 0; Plant response rating (0 to 100), Bermudagrass ([1]; 125 g ai/ha): 5; Plant response rating (0 to 100), Canarygrass ([2]; 31 g ai/ha): 0; Plant response rating (0 to 100), Cocklebur ([3]; 31 g ai/ha): 10; Plant response rating, Cocklebur ([3]; 250 g ai/ha): 50; Plant response rating (0 to 100), Deadnettle ([4]; 31 g ai/ha): 0; Plant response rating (0 to 100), Goosegrass ([5]; 31 g ai/ha): 0; Plant response rating (0 to 100), Foxtail, Green ([6]; 31 g ai/ha): 0; Plant response rating (0 to 100), Windgrass ([8]; 125 g ai/ha): 0; Plant response rating, Windgrass ([8]; 250 g ai/ha): 0; Plant response rating (0 to 100), Barley ([9]; 31 g ai/ha): 0; Plant response rating (0 to 100), Barley ([9]; 62 g ai/ha): 0; Plant response rating (0 to 100), Barley ([9]; 125 g ai/ha): 0; Plant response rating, Barley ([9]; 250 g ai/ha): 0; Plant response rating (0 to 100), Cupgrass, Woolly ([10]; 31 g ai/ha): 0; Plant response rating (0 to 100), Cupgrass, Woolly ([10]; 62 g ai/ha): 0; Plant response rating (0 to 100), Cupgrass, Woolly ([10]; 125 g ai/ha): 5; Plant response rating, Cupgrass, Woolly ([10]; 250 g ai/ha): 5
2 | Cn1cc(C(=NN2CCCC2)c2ccccc2)c(-c2cc(Cl)c(Cl)c(Cl)c2)n1 [Compound 25] | 0 | 0 | 0 | 0 | 5 | 15 | 15 | 0 | 0 | 0 | 0 | 0 | 0 | 0 | 5 | 15 | 0 | 0 | 0 | 0 | Plant response rating (0 to 100), Bermudagrass ([1]; 31 g ai/ha): 0; Plant response rating, Bermudagrass ([1]; 125 g ai/ha): 0; Plant response rating (0 to 100), Canarygrass ([2]; 31 g ai/ha): 0; Plant response rating (0 to 100), Cocklebur ([3]; 31 g ai/ha): 5; Plant response rating, Cocklebur ([3]; 250 g ai/ha): 25; Plant response rating (0 to 100), Deadnettle ([4]; 31 g ai/ha): 0; Plant response rating (0 to 100), Goosegrass ([5]; 31 g ai/ha): 0; Plant response rating (0 to 100), Foxtail, Green ([6]; 31 g ai/ha): 0; Plant response rating (0 to 100), Windgrass ([8]; 125 g ai/ha): 0; Plant response rating, Windgrass ([8]; 250 g ai/ha): 25; Plant response rating (0 to 100), Barley ([9]; 31 g ai/ha): 0; Plant response rating (0 to 100), Barley ([9]; 62 g ai/ha): 0; Plant response rating, Barley ([9]; 125 g ai/ha): 5; Plant response rating, Barley ([9]; 250 g ai/ha): 10; Plant response rating (0 to 100), Cupgrass, Woolly ([10]; 31 g ai/ha): 0; Plant response rating (0 to 100), Cupgrass, Woolly ([10]; 62 g ai/ha): 0; Plant response rating (0 to 100), Cupgrass, Woolly ([10]; 125 g ai/ha): 0; Plant response rating, Cupgrass, Woolly ([10]; 250 g ai/ha): 0
3 | Clc1cc(Cl)cc(-c2n[nH]cc2C(=NNc2ccccc2Cl)c2ccccc2)c1 [Compound 66] | 0 | 0 | 0 | 0 | 0 | 40 | 90 | 0 | 0 | 0 | 0 | 0 | 0 | 0 | 0 | 0 | 0 | 0 | 0 | 0 | Plant response rating (0 to 100), Bermudagrass ([1]; 125 g ai/ha): 0; Plant response rating, Bermudagrass ([1]; 500 g ai/ha): 0; Plant response rating, Canarygrass ([2]; 500 g ai/ha): 0; Plant response rating, Cocklebur ([3]; 500 g ai/ha): 90; Plant response rating, Deadnettle ([4]; 500 g ai/ha): 5; Plant response rating, Goosegrass ([5]; 500 g ai/ha): 0; Plant response rating, Foxtail, Green ([6]; 500 g ai/ha): 0; Plant response rating, Surinam Grass ([7]; 500 g ai/ha): 0; Plant response rating (0 to 100), Windgrass ([8]; 125 g ai/ha): 0; Plant response rating, Windgrass ([8]; 250 g ai/ha): 0; Plant response rating, Windgrass ([8]; 500 g ai/ha): 0; Plant response rating (0 to 100), Barley ([9]; 62 g ai/ha): 0; Plant response rating (0 to 100), Barley ([9]; 125 g ai/ha): 0; Plant response rating, Barley ([9]; 250 g ai/ha): 0; Plant response rating, Barley ([9]; 500 g ai/ha): 0; Plant response rating (0 to 100), Cupgrass, Woolly ([10]; 62 g ai/ha): 0; Plant response rating (0 to 100), Cupgrass, Woolly ([10]; 125 g ai/ha): 0; Plant response rating, Cupgrass, Woolly ([10]; 250 g ai/ha): 0; Plant response rating, Cupgrass, Woolly ([10]; 500 g ai/ha): 0
4 | Cn1cc(C(=O)c2cccs2)c(-c2cc(Cl)cc(Cl)c2)n1 [Compound 17] | 0 | 0 | 0 | 0 | 0 | 5 | 10 | 0 | 0 | 0 | 0 | 0 | 5 | 0 | 0 | 0 | 0 | 0 | 5 | 0 | Plant response rating, Bermudagrass ([1]; 125 g ai/ha): 0; Plant response rating, Bermudagrass ([1]; 500 g ai/ha): 0; Plant response rating, Canarygrass ([2]; 500 g ai/ha): 5; Plant response rating, Cocklebur ([3]; 250 g ai/ha): 30; Plant response rating, Cocklebur ([3]; 500 g ai/ha): 40; Plant response rating, Deadnettle ([4]; 500 g ai/ha): 0; Plant response rating, Goosegrass ([5]; 500 g ai/ha): 5; Plant response rating, Foxtail, Green ([6]; 500 g ai/ha): 0; Plant response rating, Surinam Grass ([7]; 500 g ai/ha): 5; Plant response rating (0 to 100), Windgrass ([8]; 125 g ai/ha): 0; Plant response rating, Windgrass ([8]; 250 g ai/ha): 0; Plant response rating, Windgrass ([8]; 500 g ai/ha): 0; Plant response rating (0 to 100), Barley ([9]; 62 g ai/ha): 0; Plant response rating, Barley ([9]; 125 g ai/ha): 0; Plant response rating, Barley ([9]; 250 g ai/ha): 0; Plant response rating, Barley ([9]; 500 g ai/ha): 0; Plant response rating (0 to 100), Cupgrass, Woolly ([10]; 62 g ai/ha): 0; Plant response rating (0 to 100), Cupgrass, Woolly ([10]; 125 g ai/ha): 0; Plant response rating, Cupgrass, Woolly ([10]; 250 g ai/ha): 0; Plant response rating, Cupgrass, Woolly ([10]; 500 g ai/ha): 15

— patent publication US10167262B2, “Herbicidal substituted 3-arylpyrazoles” (FMC CORPORATION, priority 2014, dated 2019)
